Measurements taken from patent US11970473B2, “Nootkatone derivatives and methods of using the same” (Arkansas State University—Jonesboro, priority 2021, dated 2024).
≈ marks a conversion by molar mass, not a printed value. Like-named read-outs stand apart in the source and are kept apart here.

Legend:
Assay in all cases: Minimal inhibitory concentration (MIC) assay
Type in all cases: cell-based
[1] = system: B. subtilis ATCC 6623 (Bs); conditions: Bacillus subtilis
Experimental: (§1) Minimal inhibitory concentration (MIC) assay The standard microdilution method recommended by the Clinical and Laboratory Standards Institute (CLSI) was used to determine the MIC of the antibiotics. The starting concentration of compounds was 50 μg/ml and 2-fold dilution was done down the 96 honeycomb well plate column. The MIC assay was conducted in triplicates.

[2] = system: Enterococcus faecalis ATCC 29212 (Es12)
Experimental: as §1

[3] = system: Enterococcus faecium ATCC 700221 (Em21); conditions: Enterococcus faecium
Experimental: as §1

[4] = system: S. aureus ATCC 25923 (Sa23); conditions: Staphylococcus aureus
Experimental: as §1

[5] = system: S. aureus ATCC 33591 (Sa91); conditions: Staphylococcus aureus
Experimental: as §1

[6] = system: S. aureus ATCC 33592 (Sa92); conditions: Staphylococcus aureus
Experimental: as §1

[7] = system: S. aureus ATCC 700699 (Sa99); conditions: Staphylococcus aureus
Experimental: as §1

[8] = system: S. aureus BAA-2312 (Sa12); conditions: Staphylococcus aureus
Experimental: as §1

[9] = system: S. epidermidis 700296 (Se); conditions: Staphylococcus epidermidis, read-out: Antimicrobial activity (MIC) Se
Experimental: as §1

[10] = ATCC6623, B. subtilis ATCC 6623, read-out: Antimicrobial activity (MIC) Bs
[11] = ATCC29212, Enterococcus faecalis ATCC 29212, read-out: Antimicrobial activity (MIC) Es12
[12] = ATCC700221, Enterococcus faecium ATCC 700221, read-out: Antimicrobial activity (MIC) Em21
[13] = ATCC25923, S. aureus ATCC 25923, antibiotic susceptible strain, read-out: Antimicrobial activity (MIC) Sa23
[14] = ATCC33591, S. aureus ATCC 33591, antibiotic-resistant strain, read-out: Antimicrobial activity (MIC) Sa91
[15] = ATCC33592, S. aureus ATCC 33592, antibiotic-resistant strain, read-out: Antimicrobial activity (MIC) Sa92
[16] = ATCC700699, S. aureus ATCC 700699, antibiotic-resistant strain, read-out: Antimicrobial activity (MIC) Sa99
[17] = BAA2312, S. aureus BAA-2312, antibiotic-resistant strain, read-out: Antimicrobial activity (MIC) Sa12

Structure (SMILES)	MIC [1, 10] [µg/mL]	MIC [2, 11] [µg/mL]	MIC [3, 12] [µg/mL]	MIC [4, 13] [µg/mL]	MIC [5, 14] [µg/mL]	MIC [6, 15] [µg/mL]	MIC [7, 16] [µg/mL]	MIC [8, 17] [µg/mL]	MIC ([9]; S. epidermidis 700296) [µg/mL]	MIC ([1]; ATCC6623, read-out: Antimicrobial activity (MIC) Bs) [µg/mL]	MIC ([2]; Enterococcus faecalis, ATCC29212, read-out: Antimicrobial activity (MIC) Es12) [µg/mL]	MIC ([3]; ATCC700221, read-out: Antimicrobial activity (MIC) Em21) [µg/mL]	MIC ([4]; ATCC25923, read-out: Antimicrobial activity (MIC) Sa23) [µg/mL]	MIC ([5]; ATCC33591, read-out: Antimicrobial activity (MIC) Sa91) [µg/mL]	MIC ([6]; ATCC33592, read-out: Antimicrobial activity (MIC) Sa92) [µg/mL]	MIC ([7]; ATCC700699, read-out: Antimicrobial activity (MIC) Sa99) [µg/mL]	MIC ([8]; BAA2312, read-out: Antimicrobial activity (MIC) Sa12) [µg/mL]	MIC [9] [µg/mL]
C=C(C)[C@@H]1CC=C2c3sc(Cc4ccccc4)nc3C[C@@H](C)[C@]2(C)C1 [Compound 3, (5R,5aS,7R)-2-benzyl-7-isopropenyl-5,5a-dimethyl-5,6,7,8-tetrahydro-4H-benzo[g][1,3]benzothiazole]	> 100	> 100	> 100	> 100	> 100	> 100	> 100	> 100	> 100									
C=C(C)[C@@H]1CC=C2c3sc(Cc4ccccc4C)nc3C[C@@H](C)[C@]2(C)C1 [Compound 4, (5R,5aS,7R)-7-isopropenyl-5,5a-dimethyl-2-(o-tolylmethyl)-5,6,7,8-tetrahydro-4H-benzo[g][1,3]benzothiazole]										> 100	> 100	> 100	> 100	> 100	> 100	> 100	> 100	> 100
C=C(C)[C@@H]1CC=C2c3sc(C4CCOCC4)nc3C[C@@H](C)[C@]2(C)C1 [Compound 5, (5R,5aS,7R)-7-isopropenyl-5,5a-dimethyl-2-tetrahydropyran-4-yl-5,6,7,8-tetrahydro-4H-benzo[g][1,3]benzothiazole]	50 (≈ 146 µM)	> 100	> 100	100 (≈ 291 µM)	> 100	100 (≈ 291 µM)	> 100	100 (≈ 291 µM)	> 100									
C=C(C)[C@@H]1CC=C2c3sc(-c4ccccc4)nc3C[C@@H](C)[C@]2(C)C1 [Compound 7, (5R,5aS,7R)-7-isopropenyl-5,5a-dimethyl-2-phenyl-5,6,7,8-tetrahydro-4H-benzo[g][1,3]benzothiazole]	> 100	> 100	> 100		> 100	> 100	> 100	> 100	> 100									
C=C(C)[C@@H]1CC=C2c3sc(-c4ccc(C(C)(C)C)cc4)nc3C[C@@H](C)[C@]2(C)C1 [Compound 9, (5R,5aS,7R)-2-(4-tert-butylphenyl)-7-isopropenyl-5,5a-dimethyl-5,6,7,8-tetrahydro-4H-benzo[g][1,3]benzothiazole]	> 100	> 100	> 100		> 100	> 100	> 100	> 100	> 100									
C=C(C)[C@@H]1CC=C2c3sc(-c4ccc(OC)cc4)nc3C[C@@H](C)[C@]2(C)C1 [Compound 10, (5R,5aS,7R)-7-isopropenyl-2-(4-methoxyphenyl)-5,5a-dimethyl-5,6,7,8-tetrahydro-4H-benzo[g][1,3]benzothiazole]	50 (≈ 137 µM)	> 100	> 100	50 (≈ 137 µM)	100 (≈ 274 µM)	> 100	> 100	100 (≈ 274 µM)	> 100									
C=C(C)[C@@H]1CC=C2c3sc(-c4cccc(OCC)c4)nc3C[C@@H](C)[C@]2(C)C1 [Compound 11, (5R,5aS,7R)-2-(3-ethoxyphenyl)-7-isopropenyl-5,5a-dimethyl-5,6,7,8-tetrahydro-4H-benzo[g][1,3]benzothiazole]	> 100	> 100	> 100	50 (≈ 132 µM)	> 100	> 100	> 100	> 100	> 100									
C=C(C)[C@@H]1CC=C2c3sc(-c4ccc(Oc5ccc(C(F)(F)F)cn5)cc4)nc3C[C@@H](C)[C@]2(C)C1 [Compound 12, (5R,5aS,7R)-7-isopropenyl-5,5a-dimethyl-2-[4-[[5-(trifluoromethyl)-2-pyridyl]oxy]phenyl]-5,6,7,8-tetrahydro-4H-benzo[g][1,3]benzothiazole]	> 100	> 100	> 100		> 100	> 100	> 100	> 100	> 100									

Now from value to compound, other results behind:

MIC [1, 10] [µg/mL]	MIC [2, 11] [µg/mL]	MIC [3, 12] [µg/mL]	MIC [4, 13] [µg/mL]	MIC [5, 14] [µg/mL]	MIC [6, 15] [µg/mL]	MIC [7, 16] [µg/mL]	MIC [8, 17] [µg/mL]	MIC ([9]; S. epidermidis 700296) [µg/mL]	Structure (SMILES)	MIC ([1]; ATCC6623, read-out: Antimicrobial activity (MIC) Bs) [µg/mL]	MIC ([2]; Enterococcus faecalis, ATCC29212, read-out: Antimicrobial activity (MIC) Es12) [µg/mL]	MIC ([3]; ATCC700221, read-out: Antimicrobial activity (MIC) Em21) [µg/mL]	MIC ([4]; ATCC25923, read-out: Antimicrobial activity (MIC) Sa23) [µg/mL]	MIC ([5]; ATCC33591, read-out: Antimicrobial activity (MIC) Sa91) [µg/mL]	MIC ([6]; ATCC33592, read-out: Antimicrobial activity (MIC) Sa92) [µg/mL]	MIC ([7]; ATCC700699, read-out: Antimicrobial activity (MIC) Sa99) [µg/mL]	MIC ([8]; BAA2312, read-out: Antimicrobial activity (MIC) Sa12) [µg/mL]	MIC [9] [µg/mL]
50 (≈ 142 µM)	> 100	> 100	50 (≈ 142 µM)	100 (≈ 284 µM)	> 100	> 100	100 (≈ 284 µM)	> 100	C=C(C)[C@@H]1CC=C2c3sc(-c4ccccc4O)nc3C[C@@H](C)[C@]2(C)C1 [Compound 13, 2-[(5R,5aS,7R)-7-isopropenyl-5,5a-dimethyl-5,6,7,8-tetrahydro-4H-benzo[g][1,3]benzothiazol-2-yl]phenol]									
> 100	> 100	> 100	50 (≈ 142 µM)	> 100	> 100	> 100	> 100	> 100	C=C(C)[C@@H]1CC=C2c3sc(-c4cccc(O)c4)nc3C[C@@H](C)[C@]2(C)C1 [Compound 14, 3-[(5R,5aS,7R)-7-isopropenyl-5,5a-dimethyl-5,6,7,8-tetrahydro-4H-benzo[g][1,3]benzothiazol-2-yl]phenol]									
> 100	> 100	> 100	> 100	50 (≈ 141 µM)	> 100	> 100	25 (≈ 70.7 µM)	> 100	C=C(C)[C@@H]1CC=C2c3sc(-c4ccc(F)cc4)nc3C[C@@H](C)[C@]2(C)C1 [Compound 18, (5R,5aS,7R)-2-(4-fluorophenyl)-7-isopropenyl-5,5a-dimethyl-5,6,7,8-tetrahydro-4H-benzo[g][1,3]benzothiazole]									
> 100	> 100	> 100		> 100	> 100	> 100	> 100	> 100	C=C(C)[C@@H]1CC=C2c3sc(-c4ccc(C(F)(F)F)cc4)nc3C[C@@H](C)[C@]2(C)C1 [Compound 22, (5R,5aS,7R)-7-isopropenyl-5,5a-dimethyl-2-[4-(trifluoromethyl)phenyl]-5,6,7,8-tetra-tetrahydro-4H-benzo[g][1,3]benzothiazole]									
> 100	> 100	> 100		> 100	> 100	> 100	> 100	> 100	C=C(C)[C@@H]1CC=C2c3sc(-c4ccc([N+](=O)[O-])cc4)nc3C[C@@H](C)[C@]2(C)C1 [Compound 23, (5R,5aS,7R)-7-isopropenyl-5,5a-dimethyl-2-(4-nitrophenyl)-5,6,7,8-tetrahydro-4H-benzo [g][1,3]benzothiazole]									
> 100	> 100	> 100		> 100	> 100	> 100	> 100	> 100	C=C(C)[C@@H]1CC=C2c3sc(Nc4ccccc4C(F)(F)F)nc3C[C@@H](C)[C@]2(C)C1 [Compound 27, (5R,5aS,7R)-7-isopropenyl-5,5a-dimethyl-N-[2-(trifluoromethyl)phenyl]-5,6,7,8-tetrahydro-4H-benzo[g][1,3]benzothiazol-2-amine]									
> 100	> 100	> 100		> 100	> 100	> 100	> 100	> 100	C=C(C)[C@@H]1CC=C2c3sc(Nc4cccc(C(F)(F)F)c4)nc3CC[C@]2(C)[C@H]1C [Compound 28, (5aR,6S,7R)-7-isopropenyl-5a,6-dimethyl-N-[3-(trifluoromethyl)phenyl]-5,6,7,8-tetrahydro-4H-benzo[g][1,3]benzothiazol-2-amine]									
> 100	> 100	> 100		> 100	> 100	> 100	> 100	> 100	C=C(C)[C@@H]1CC=C2c3sc(Nc4ccccc4[N+](=O)[O-])nc3C[C@@H](C)[C@]2(C)C1 [Compound 29, (5R,5aS,7R)-7-isopropenyl-5,5a-dimethyl-N-(2-nitrophenyl)-5,6,7,8-tetrahydro-4H-benzo[g][1,3]benzothiazol-2-amine]									
